Key:
[1] = target: T1, Human recombinant C-ter-His-FLAG-HDAC1 (Homo sapiens, UniProt Q13547); experiment: HDAC-Glo I/II bioluminogenic enzyme assay, HDAC1; type: biochemical; conditions: mean ± SD of three independent experiments; read-out: HDAC Inhibition, IC50 ± SD, HDAC1
T1 construct: His (C); FLAG (C); purchased BPS Bioscience 50051

MDA-MB-231 tumor spheres = experiment: 3D tumor sphere model, MTT and imaging; type: cell-based, human; conditions: for tumor sphere viability: 50 µM, 72 h, formed spheres
Description: MDA-MB-231 cells were seeded at a cell density of 1000 c/w in 100 μL of DMEM containing 10% FCS in a low-attachment NunclonSphera 96-well ultra-low attachment plate (Thermo Scientific Nunc™, Rochester, NY, USA), to form multicellular tumor spheres, for 4 days. The formation and growth of tumor spheres were examined and imaged with an Olympus CKX53 microscope, using a 10× objective. MDA-MB-231 tumor spheres were treated by carefully adding 50 μL of the medium with fresh nutrient medium for control spheres or with compound-supplemented medium (50 μM) for treated spheres for another 72 h. The cytotoxicity of compounds toward the MDA-MB-231 tumor spheres was investigated by MTT assay.
The formation and growth of tumor spheroids were examined and imaged with an Olympus CKX53 microscope, using 4x objective. The cytotoxicity of compounds toward the MDA-MB-231 tumor spheroids was investigated by MTT assay.

MDA-MB-231 cells = experiment: Cell cycle analysis, propidium iodide flow cytometry; type: cell-based, human; conditions: IC50 concentration; for percentage of cells in S phases: 48 h
Description: MDA-MB-231 cells were treated with tested compounds for specified time courses. After treatment, examined cells were washed in cold PBS and incubated for 30 min in 96% ethanol on ice, centrifuged, and incubated with 80 μL RNase A ([…]) and 50 μL propidium iodide (50 μg/mL) for 30 min at 37 °C. The cell cycle was analyzed by FACS Calibur E440 (Becton Dickinson) flow cytometer and Cell Quest software. Results are presented as a percentage of cell cycle phases.

MCF-7 cells = experiment: Cell viability (MTT) assay, MCF-7; type: cell-based; conditions: Homo sapiens, MCF7, 48 h, read-out: Cytotoxic activity IC50 ± SD, MCF-7
Description: Human breast adenocarcinoma cells (MCF-7, ATCC® HTB-22™) and triple-negative breast cancer cells (MDA-MB-231, ATCC® HTB-26™) were obtained from the American Type Culture Collection (Rockville, MD, USA). Cells were maintained as a monolayer culture in DMEM:Ham’s 12 (1:1) medium (Sigma-Aldrich, St. Louis, MO, USA) supplemented with penicillin (192 U/mL), streptomycin (200 µg/mL), and 10% of heat-inactivated fetal calf serum (FCS). Cells were grown at 37 °C in 5% CO2 and humidified air atmosphere, by twice weekly subculture.
Cytotoxic activity of synthesized 1-benzhydryl-piperazine-based HDAC inhibitors was assessed on MDA-MB-231 and MCF-7 cells using an MTT assay. MDA-MB-231 (5 × 10^3 cells/well) and MCF-7 (5 × 10^3 cells/well) were treated with synthesized compounds in six different concentrations (100, 50, 25, 12.5, 6.25, and 3.13 μM), and each concentration was added in five replicates. MTT solution (3-(4,5-dimethylthiazol-2-yl)-2,5-diphenyltetrazolium bromide) (Sigma-Aldrich, St. Louis, USA) was added to each well (20 µL) after 48 h. After 4 h of incubation, 100 μL of 10% SDS was added in each well and incubated at 37 °C. On the next day, the absorbance at 570 nm was recorded. The ratio of absorbance (570 nm) values between treated and control cells multiplied by 100 was used to calculate cell survival (%). The concentration of synthesized HDAC inhibitors that reduced cell viability by 50% was defined as the IC50 value, and was compared to the vehicle control.

[2] = target: Human recombinant HDAC-3/NcoR2 (Homo sapiens, UniProt O15379); experiment: HDAC-Glo I/II bioluminogenic enzyme assay, HDAC3; type: biochemical; set-up: purchased BPS Bioscience 50003; conditions: mean ± SD of three independent experiments; read-out: HDAC Inhibition, IC50 ± SD, HDAC3
Chain of Human recombinant HDAC-3/NcoR2 (O15379 whole entry): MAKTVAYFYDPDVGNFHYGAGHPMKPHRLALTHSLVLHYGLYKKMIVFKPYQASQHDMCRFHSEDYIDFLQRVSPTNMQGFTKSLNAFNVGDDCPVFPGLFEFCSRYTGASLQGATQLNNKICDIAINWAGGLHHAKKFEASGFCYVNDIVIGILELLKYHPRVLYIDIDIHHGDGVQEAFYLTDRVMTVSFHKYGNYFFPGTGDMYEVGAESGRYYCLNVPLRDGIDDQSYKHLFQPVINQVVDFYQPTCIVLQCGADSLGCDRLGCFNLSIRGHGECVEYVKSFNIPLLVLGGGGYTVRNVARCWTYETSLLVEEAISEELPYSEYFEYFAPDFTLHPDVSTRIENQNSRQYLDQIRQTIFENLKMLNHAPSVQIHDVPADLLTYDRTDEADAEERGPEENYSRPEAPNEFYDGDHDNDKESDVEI
Chain of Human recombinant HDAC-3/NcoR2 (Q9Y618 395-489 partner limits assumed): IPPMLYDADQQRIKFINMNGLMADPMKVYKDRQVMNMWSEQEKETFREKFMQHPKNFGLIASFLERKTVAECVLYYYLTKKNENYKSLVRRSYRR

T1 sequence (Q13547 whole entry): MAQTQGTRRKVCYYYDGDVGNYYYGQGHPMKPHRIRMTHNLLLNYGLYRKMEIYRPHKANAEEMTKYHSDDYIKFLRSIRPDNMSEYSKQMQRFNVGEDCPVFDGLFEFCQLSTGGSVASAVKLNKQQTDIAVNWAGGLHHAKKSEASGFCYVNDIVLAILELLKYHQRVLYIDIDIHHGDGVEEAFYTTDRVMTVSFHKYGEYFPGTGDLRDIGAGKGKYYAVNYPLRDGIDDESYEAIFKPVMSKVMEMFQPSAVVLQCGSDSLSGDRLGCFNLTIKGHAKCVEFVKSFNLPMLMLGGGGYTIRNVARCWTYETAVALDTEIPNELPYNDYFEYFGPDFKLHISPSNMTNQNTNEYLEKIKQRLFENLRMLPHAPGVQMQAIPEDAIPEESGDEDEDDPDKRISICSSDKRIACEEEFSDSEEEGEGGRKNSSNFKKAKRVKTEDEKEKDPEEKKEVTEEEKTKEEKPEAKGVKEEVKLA

In the case of `O=C(CCCCCCCN1CCN(C(c2ccccc2)c2ccccc2)CC1)NO` [Compound 8b, 8-(4-(diphenylmethyl)-piperazin-1-yl)-N-hydroxyoctanamide], the IC50 [1] is reported as 408 ± 22 nM, the IC50 (MDA-MB-231 tumor spheres; Homo sapiens, MDA-MB-231, spheres formed 4 d, treated 72 h, MTT) is reported as 50000 nM and the “sphere formation and spheres viability” value (MDA-MB-231 tumor spheres; co-culture 50 μM, 4 d in sphere culture conditions) is reported as “significantly inhibited”. For the same compound, the “percentage of cells in the G2/M phase” value (MDA-MB-231 cells; 24 h) was “slight increase”, the “percentage of cells in S phases” value (MDA-MB-231 cells) was “increased” and the IC50 (MCF-7 cells) was 39100 ± 2700 nM. It also gave an IC50 [2] of 207 ± 14 nM.

For `O=C(CCCCCCN1CCN(C(c2ccccc2)c2ccccc2)CC1)NO` [Compound 7b, 7-(4-(diphenylmethyl)-piperazin-1-yl)-N-hydroxyheptanamide], the IC50 [1] was 619 ± 23 nM, the tumor sphere viability (MDA-MB-231 tumor spheres; MTT) was “did not exhibit significant cytotoxic effects” and the sphere formation (MDA-MB-231 tumor spheres; co-culture 4 d, at higher concentrations) was “inhibit sphere formation to some extent”. The “percentage of cells in the G2/M phase” value (MDA-MB-231 cells; 24 h) was “slight increase”, the “percentage of cells in S phases” value (MDA-MB-231 cells) was “increased” and the IC50 (MCF-7 cells) was greater than 100000 nM. It also gave an IC50 [2] of 267 ± 19 nM.

`O=C(NO)c1ccc(CN2CCN(C(c3ccccc3)c3ccccc3)CC2)cc1` [Compound 9b, 4-(4-(diphenylmethyl)-piperazin-1-ylmethyl)-N-hydroxy-benzamide] was tested, and the IC50 [1] was 1470 ± 172 nM, the tumor sphere viability (MDA-MB-231 tumor spheres; MTT) was “did not exhibit significant cytotoxic effects” and the “percentage of cells in the S phase” value (MDA-MB-231 cells; 24 h) was “increased”. The “percentage of cells in S phases” value (MDA-MB-231 cells) was “increased”, the IC50 (MCF-7 cells) was 99500 ± 700 nM and the IC50 [2] was 3470 ± 121 nM.
